Measured values from ChEMBL document CHEMBL4138182, “Aminomethylation of heliomycin: Preparation and anticancer characterization of the first series of semi-synthetic derivatives” (Eur J Med Chem, 2018).
Activity calls are given as the source filed them. No cut-off for these calls is given here.

Key:
HCT-116 [1] = experiment: Antiproliferative activity against human HCT116 cells after 72 hrs by MTT assay; assay type: functional, cell-based; details: HCT-116, 72 h
HCT-116 [2] = experiment: Antiproliferative activity against p53 deficient human HCT116 cells after 72 hrs by MTT assay; assay type: functional, cell-based; details: HCT-116, 72 h
K562 = experiment: Antiproliferative activity against human K562 cells after 72 hrs by MTT assay; assay type: functional, cell-based; details: K562, 72 h
[3] = Antiproliferative activity against human K562/4 cells after 72 hrs by MTT assay; assay type: functional, cell-based; details: K562/4, 72 h
L1210 = experiment: Antiproliferative activity against mouse L1210 cells after 72 hrs by MTT assay; assay type: functional, cell-based; details: L1210, 72 h
CCRF-CEM = experiment: Antiproliferative activity against human CEM cells after 72 hrs by MTT assay; assay type: functional, cell-based
HeLa = experiment: Antiproliferative activity against human HeLa cells after 72 hrs by MTT assay; assay type: functional, cell-based
[4] = Resistance index, ratio of IC50 for human K562/4 cells to IC50 for human K562 cells; assay type: functional
HMEC-1 = experiment: Antiproliferative activity against HMEC1 cells after 72 hrs by MTT assay; assay type: cell-based; details: Homo sapiens, HMEC-1, 72 h
Calf thymus DNA [5] = experiment: Binding affinity to calf thymus double stranded DNA at 10 uM by fluorescence spectrophotometer; assay type: nucleic-acid assay; details: Bos taurus
T-24 [6] = experiment: Growth inhibition of human T24 cells after 72 hrs by cell impedance method; assay type: functional, cell-based; details: T-24, 72 h
[7] = molecular target: T1, DNA topoisomerase 1 (Homo sapiens) (UniProt P11387); experiment: Inhibition of human DNA topoisomerase 1 assessed as decrease in relaxation of pBR322 at 20 uM after 30 to 40 mins by agarose gel electrophoresis
T1 sequence (whole entry): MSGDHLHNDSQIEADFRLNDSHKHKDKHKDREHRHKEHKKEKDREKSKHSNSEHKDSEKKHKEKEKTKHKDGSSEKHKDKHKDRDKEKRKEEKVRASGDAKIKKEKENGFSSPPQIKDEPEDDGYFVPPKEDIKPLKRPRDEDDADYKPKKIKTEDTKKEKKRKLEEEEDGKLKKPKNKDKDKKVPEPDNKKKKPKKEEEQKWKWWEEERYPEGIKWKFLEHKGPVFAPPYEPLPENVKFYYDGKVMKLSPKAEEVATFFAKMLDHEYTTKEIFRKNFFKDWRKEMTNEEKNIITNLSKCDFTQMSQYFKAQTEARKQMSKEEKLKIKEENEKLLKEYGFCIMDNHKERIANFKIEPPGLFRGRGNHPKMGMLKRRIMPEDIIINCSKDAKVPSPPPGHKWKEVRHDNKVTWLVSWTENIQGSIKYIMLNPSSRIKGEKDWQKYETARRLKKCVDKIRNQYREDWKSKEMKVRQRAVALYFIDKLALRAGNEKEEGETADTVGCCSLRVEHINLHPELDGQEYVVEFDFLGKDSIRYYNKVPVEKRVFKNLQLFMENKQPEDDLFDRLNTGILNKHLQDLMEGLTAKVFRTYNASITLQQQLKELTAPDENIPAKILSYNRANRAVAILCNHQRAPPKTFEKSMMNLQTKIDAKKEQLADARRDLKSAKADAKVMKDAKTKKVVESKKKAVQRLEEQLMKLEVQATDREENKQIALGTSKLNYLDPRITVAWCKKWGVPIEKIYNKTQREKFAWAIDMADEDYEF

T-24 [8] = experiment: Induction of apoptosis n human T24 cells at 1 uM after 24 hrs by annexin V-FITC/propidium iodide staining-based flow cytometric method; assay type: functional, cell-based
T-24 [9] = experiment: Induction of apoptosis n human T24 cells assessed as upregulation of Bak levels at 0.5 to 1 uM after 18 hrs by Western blot method; assay type: functional, cell-based
T-24 [10] = experiment: Induction of apoptosis n human T24 cells assessed as downregulation of Bcl-2 levels at 0.5 to 1 uM after 18 hrs by Western blot method; assay type: functional, cell-based
T-24 [11] = experiment: Induction of apoptosis n human T24 cells assessed as PARP cleavage at 0.5 to 1 uM after 18 hrs by Western blot method; assay type: functional, cell-based
T-24 [12] = experiment: Upregulation of total p53 levels in human T24 cells at 0.5 to 1 uM after 18 hrs by Western blot method; assay type: cell-based; details: t-24, 18 h
T-24 [13] = experiment: Induction of reactive oxygen species generation in human T24 cells at 1 uM after 30 mins by H2DCFDA dye-based flow cytometric method; assay type: functional, cell-based
Calf thymus DNA [14] = experiment: Binding affinity to calf thymus DNA; assay type: nucleic-acid assay; details: Bos taurus

IC50 (HCT-116 [1])	IC50 (HCT-116 [2])	IC50 (K562)	IC50 (L1210)	IC50 (CCRF-CEM)	IC50 (HeLa)	Activity (Calf thymus DNA [5])	inhibition [7]	Kb (Calf thymus DNA [14])	SMILES	IC50 [3]	Ratio IC50 [4]	IC50 (HMEC-1)	IC50 (T-24 [6])	Activity (T-24 [8])	Activity (T-24 [9])	Activity (T-24 [10])	Activity (T-24 [11])	Activity (T-24 [12])	Activity (T-24 [13])
500 nM	1000 nM	1300 nM	3800 nM	3300 nM	3600 nM	–	–	–	Cc1cc(O)c2c3c4c(cc(O)c13)C(C)(C)C(=O)c1c(O)c(CNCCO)c(O)c(c1-4)C2=O	19400 nM	20	–	–	–	–	–	–	–	–
300 nM	100 nM	300 nM	700 nM	500 nM	100 nM	inactive	inactive	1.1 ×10⁴ /M	Cc1cc(O)c2c3c4c(cc(O)c13)C(C)(C)C(=O)c1c(O)cc(O)c(c1-4)C2=O [HELIOMYCIN]	400 nM	–	500 nM	26000 nM	inactive	inactive	inactive	inactive	Toxic	inactive
